Literature values, collected in patent US8945630B2, “Method of producing and applications of composition of hypochlorous acid” (Aquilabs S.A., priority 2008, dated 2015).

Conditions: at 25° C.

dissociation constant: 2.9×10^−8
SMILES: OCl [Hypochlorous acid]
